Assay results: patent publication US12655116B2, “Substituted isophthalic acid diamides” (Bayer Aktiengesellschaft, priority 2020, dated 2026)

Tests used:
HORMU = assay: Pre-emergence herbicidal action against HORMU; format: in vivo, Hordeum murinum; conditions: Hordeum murinum, 504 h; 80 g/ha, pre-emergence
In short: (§1)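 Seeds sown in sandy loam, soil-covered; compound sprayed on soil surface pre-emergence. Application: WP/EC, 600–800 l/ha, 0.2% wetting agent. Readout: visual % damage at 3 weeks.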

POLCO [1] = assay: Post-emergence herbicidal action against POLCO; format: in vivo, Polygonum convolvulus; conditions: Fallopia convolvulus, 504 h, dosage 20 g/ha
In short: (§2)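 Sandy loam, greenhouse; treatment 2–3 weeks after sowing, one-leaf stage. Aqueous suspension or emulsion from WP/EC sprayed on foliage (600–800 l/ha, 0.2% wetting agent). Readout: visual % action, ~3 weeks.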

MATIN [2] = assay: Post-emergence herbicidal action against MATIN; format: in vivo, Matricaria inodora; conditions: Tripleurospermum inodorum, 504 h; for pest or weed control at 20 g/ha: dosage 20 g/ha
In short: as §2

ABUTH [3] = assay: Post-emergence herbicidal action against ABUTH; format: in vivo, Abutilon theophrasti; conditions: Abutilon theophrasti, 504 h, visual assessment about 3 weeks after treatment vs untreated controls; for pest or weed control at 5 g/ha: dosage 5 g/ha; for pest or weed control at 20 g/ha: dosage 20 g/ha
In short: as §2

ABUTH [4] = assay: Pre-emergence herbicidal action against ABUTH; format: in vivo, Abutilon theophrasti; conditions: Abutilon theophrasti, 504 h; for pest or weed control at 80 g/ha: scored visually after 3 weeks vs untreated controls (100% = plants have died, 0% = like control plants); for pest or weed control at 20 g/ha: dosage 20 g/ha, scored visually after 3 weeks vs untreated controls, 100% = plants have died, 0% = like control plants, read-out: Pre-emergence action against ABUTH (herbicidal activity in percent)
In short: as §1

ECHCG [5] = assay: Post-emergence herbicidal action against ECHCG; format: in vivo, Echinochloa crus-galli; conditions: Echinochloa crus-galli, 504 h, dosage 20 g/ha
In short: as §2

STEME [6] = assay: Post-emergence herbicidal action against STEME; format: in vivo, Stellaria media; conditions: Stellaria media, 504 h
In short: as §2

DIGSA [7] = assay: Post-emergence herbicidal action against DIGSA; format: in vivo, Digitaria sanguinalis; conditions: Digitaria sanguinalis, 504 h
In short: as §2

VERPE [8] = assay: Post-emergence herbicidal action against VERPE; format: in vivo, Veronica persica; conditions: Veronica persica, 504 h, 20 g/ha
In short: as §2

MATIN [9] = assay: Pre-emergence herbicidal action against MATIN; format: in vivo, Matricaria inodora; conditions: Tripleurospermum inodorum, 504 h; for pest or weed control at 20 g/ha: dosage 20 g/ha; for pest or weed control at 80 g/ha: dosage 80 g/ha
In short: as §1

VERPE [10] = assay: Pre-emergence herbicidal action against VERPE; format: in vivo, Veronica persica; conditions: Veronica persica, 504 h; for pest or weed control at 80 g/ha: dosage 80 g/ha
In short: as §1

SETVI [11] = assay: Post-emergence herbicidal action against SETVI; format: in vivo, Setaria viridis; conditions: Setaria viridis, 504 h; for pest or weed control at 20 g/ha: dosage 20 g/ha
In short: as §2

PHBPU [12] = assay: Post-emergence herbicidal action against PHBPU; format: in vivo, Pharbitis purpurea; conditions: Ipomoea purpurea, 504 h, dosage 20 g/ha
In short: as §2

DIGSA [13] = assay: Pre-emergence herbicidal action against DIGSA; format: in vivo, Digitaria sanguinalis; conditions: Digitaria sanguinalis, 504 h; for pest or weed control at 20 g/ha: dosage 20 g/ha; for pest or weed control at 80 g/ha: dosage 80 g/ha
In short: as §1

AVEFA [14] = assay: Pre-emergence herbicidal action against AVEFA; format: in vivo, Avena fatua; conditions: Avena fatua, 504 h; 80 g/ha, pre-emergence
In short: as §1

LOLRI [15] = assay: Pre-emergence herbicidal action against LOLRI; format: in vivo, Lolium rigidum; conditions: Lolium rigidum, 504 h, 80 g/ha
In short: as §1

ALOMY [16] = assay: Pre-emergence herbicidal action against ALOMY; format: in vivo, Alopecurus myosuroides; conditions: Alopecurus myosuroides, 504 h, pre-emergence; for pest or weed control at 80 g/ha: scored visually after 3 weeks vs untreated controls (100% = plants have died, 0% = like control plants)
In short: as §1

VIOTR [17] = assay: Pre-emergence herbicidal action against VIOTR; format: in vivo, Viola tricolor; conditions: Viola tricolor, 504 h; for pest or weed control at 80 g/ha: dosage 80 g/ha
In short: as §1

LOLRI [18] = assay: Post-emergence herbicidal action against LOLRI; format: in vivo, Lolium rigidum; conditions: Lolium rigidum, 504 h, dosage 20 g/ha
In short: as §2

ECHCG [19] = assay: Pre-emergence herbicidal action against ECHCG; format: in vivo, Echinochloa crus-galli; conditions: Echinochloa crus-galli, 504 h
In short: as §1

AMARE [20] = assay: Pre-emergence herbicidal action against AMARE; format: in vivo, Amaranthus retroflexus; conditions: Amaranthus retroflexus, 504 h, scored visually after 3 weeks vs untreated controls, 100% = plants have died, 0% = like control plants
In short: as §1

VIOTR [21] = assay: Post-emergence herbicidal action against VIOTR; format: in vivo, Viola tricolor; conditions: Viola tricolor, 504 h
In short: as §2

AMARE [22] = assay: Post-emergence herbicidal action against AMARE; format: in vivo, Amaranthus retroflexus; conditions: Amaranthus retroflexus, 504 h, 20 g/ha, visual assessment about 3 weeks after treatment, 100% = plants have died, 0% = like control plants
In short: as §2

STEME [23] = assay: Pre-emergence herbicidal action against STEME; format: in vivo, Stellaria media; conditions: Stellaria media, 504 h
In short: as §1

SETVI [24] = assay: Pre-emergence herbicidal action against SETVI; format: in vivo, Setaria viridis; conditions: Setaria viridis, 504 h; for pest or weed control at 80 g/ha: dosage 80 g/ha
In short: as §1

POLCO [25] = assay: Pre-emergence herbicidal action against POLCO; format: in vivo, Polygonum convolvulus; conditions: Fallopia convolvulus, 504 h, dosage 80 g/ha
In short: as §1

ALOMY [26] = assay: Post-emergence herbicidal action against ALOMY; format: in vivo, Alopecurus myosuroides; conditions: Alopecurus myosuroides, 504 h, visual assessment about 3 weeks after treatment vs untreated controls; for pest or weed control at 20 g/ha: dosage 20 g/ha
In short: as §2

AVEFA [27] = assay: Post-emergence herbicidal action against AVEFA; format: in vivo, Avena fatua; conditions: Avena fatua, 504 h, 20 g/ha, visual assessment about 3 weeks after treatment, 100% = plants have died, 0% = like control plants
In short: as §2

PHBPU [28] = assay: Pre-emergence herbicidal action against PHBPU; format: in vivo, Pharbitis purpurea; conditions: Ipomoea purpurea, 504 h, dosage 80 g/ha
In short: as §1

CCNC(=O)c1c(C(F)(F)F)ccc(C(=O)Nc2nnnn2C)c1C [Example 1-26]
pest or weed control at 80 g/ha (HORMU): 80%
pest or weed control at 20 g/ha (POLCO [1]): 90%
pest or weed control at 5 g/ha (MATIN [2]; dosage 5 g/ha): 90%
pest or weed control at 20 g/ha (MATIN [2]): 90%
pest or weed control at 5 g/ha (ABUTH [3]): 90%
pest or weed control at 20 g/ha (ABUTH [3]): 100%
pest or weed control at 80 g/ha (ABUTH [4]): 100%
pest or weed control at 20 g/ha (ABUTH [4]): 100%
pest or weed control at 20 g/ha (ECHCG [5]): 80%
pest or weed control at 20 g/ha (STEME [6]; 20 g/ha): 90%
pest or weed control at 5 g/ha (STEME [6]; dosage 5 g/ha): 90%
pest or weed control at 5 g/ha (DIGSA [7]; 5 g/ha): 90%
pest or weed control at 20 g/ha (DIGSA [7]; 20 g/ha): 100%
pest or weed control at 20 g/ha (VERPE [8]): 80%
pest or weed control at 20 g/ha (MATIN [9]): 100%
pest or weed control at 80 g/ha (MATIN [9]): 100%
pest or weed control at 80 g/ha (VERPE [10]): 80%
pest or weed control at 5 g/ha (SETVI [11]; dosage 5 g/ha): 100%
pest or weed control at 20 g/ha (SETVI [11]): 100%
pest or weed control at 20 g/ha (PHBPU [12]): 80%
pest or weed control at 20 g/ha (DIGSA [13]): 100%
pest or weed control at 80 g/ha (DIGSA [13]): 100%
pest or weed control at 80 g/ha (AVEFA [14]): 100%
pest or weed control at 80 g/ha (LOLRI [15]): 80%
pest or weed control at 80 g/ha (ALOMY [16]): 100%
pest or weed control at 20 g/ha (VIOTR [17]; dosage 20 g/ha): 90%
pest or weed control at 80 g/ha (VIOTR [17]): 100%
pest or weed control at 20 g/ha (LOLRI [18]): 80%
pest or weed control at 20 g/ha (ECHCG [19]): 80%
pest or weed control at 80 g/ha (ECHCG [19]): 100%
pest or weed control at 20 g/ha (AMARE [20]): 100%
pest or weed control at 80 g/ha (AMARE [20]): 100%
pest or weed control at 5 g/ha (VIOTR [21]): 100%
pest or weed control at 20 g/ha (VIOTR [21]): 100%
pest or weed control at 20 g/ha (AMARE [22]): 100%
pest or weed control at 20 g/ha (STEME [23]; dosage 20 g/ha): 100%
pest or weed control at 80 g/ha (STEME [23]; dosage 80 g/ha): 100%
pest or weed control at 20 g/ha (SETVI [24]; dosage 20 g/ha): 80%
pest or weed control at 80 g/ha (SETVI [24]): 100%
pest or weed control at 80 g/ha (POLCO [25]): 90%
pest or weed control at 20 g/ha (ALOMY [26]): 90%

CCNC(=O)c1c(Br)ccc(C(=O)Nc2nnnn2C)c1Cl [Example 1-178, 4-bromo-2-chloro-N^3-ethyl-N^1-(1-methyl-1H-tetrazol-5-yl)isophthalamide]
pest or weed control at 20 g/ha (POLCO [1]): 80%
pest or weed control at 20 g/ha (MATIN [2]): 90%
pest or weed control at 5 g/ha (ABUTH [3]): 80%
pest or weed control at 20 g/ha (ABUTH [3]): 80%
pest or weed control at 80 g/ha (ABUTH [4]): 100%
pest or weed control at 20 g/ha (ABUTH [4]): 90%
pest or weed control at 20 g/ha (ECHCG [5]): 90%
pest or weed control at 20 g/ha (VERPE [8]): 80%
pest or weed control at 20 g/ha (MATIN [9]): 90%
pest or weed control at 80 g/ha (MATIN [9]): 100%
pest or weed control at 20 g/ha (VERPE [10]; dosage 20 g/ha): 80%
pest or weed control at 80 g/ha (VERPE [10]): 80%
pest or weed control at 20 g/ha (SETVI [11]): 90%
pest or weed control at 20 g/ha (PHBPU [12]): 80%
pest or weed control at 20 g/ha (DIGSA [13]): 100%
pest or weed control at 80 g/ha (DIGSA [13]): 100%
pest or weed control at 80 g/ha (AVEFA [14]): 100%
pest or weed control at 80 g/ha (LOLRI [15]): 80%
pest or weed control at 80 g/ha (ALOMY [16]): 100%
pest or weed control at 20 g/ha (ALOMY [16]; 20 g/ha, scored visually after 3 weeks, 100% = plants have died, 0% = like control plants): 80%
pest or weed control at 80 g/ha (VIOTR [17]): 100%
pest or weed control at 20 g/ha (LOLRI [18]): 80%
pest or weed control at 20 g/ha (ECHCG [19]): 80%
pest or weed control at 80 g/ha (ECHCG [19]): 100%
pest or weed control at 20 g/ha (AMARE [20]): 100%
pest or weed control at 80 g/ha (AMARE [20]): 100%
pest or weed control at 5 g/ha (VIOTR [21]): 80%
pest or weed control at 20 g/ha (VIOTR [21]): 80%
pest or weed control at 20 g/ha (AVEFA [27]): 80%
pest or weed control at 20 g/ha (AMARE [22]): 100%
pest or weed control at 80 g/ha (PHBPU [28]): 80%
pest or weed control at 80 g/ha (SETVI [24]): 100%
pest or weed control at 5 g/ha (ALOMY [26]; dosage 5 g/ha): 90%
pest or weed control at 20 g/ha (ALOMY [26]): 100%
